Literature values, collected in US8895065B2, “Single unit oral dose pharmaceutical composition comprising levodopa, carbidopa and entacapone or salts thereof” (Wockhardt Ltd., priority 2008, dated 2014).

In the case of `C[C@@](Cc1ccc(O)c(O)c1)(NN)C(=O)O` [Carbidopa], the solubility in water is listed as “slightly soluble”.

In the case of `N[C@@H](Cc1ccc(O)c(O)c1)C(=O)O` [Levodopa, (−)-L-α-amino-β-(3,4-dihydroxybenzene)propanoic acid], the solubility in water is listed as “slightly soluble”.
